According to US8859615B2, “Compounds, compositions and methods for reducing toxicity and treating or preventing diseases” (priority 2008, dated 2014):
Read-outs that look alike come from different tables or passages of the source.

Legend:
[1] = tested on: human mammary carcinoma MX-1 xenografts; conditions: nude, mouse, in vivo
[2] = tested on: CCRF-CEM human T-cell acute lymphoblastic leukemia cells; assay: In vitro cytotoxicity against CCRF-CEM (XTT / CCK-8 tetrazolium assay, 72 hr)
[3] = tested on: CCRF-CEM/VBL100 vinblastine-resistant cells; assay: In vitro cytotoxicity against vinblastine-resistant CCRF-CEM subline; format: cell-based, human
Method: The cytotoxicity IC50 of each compound was measured with the XTT assay using the 2,3-bis(2-methoxy-4-nitro-5-sulfophenyl)-5-[(phenylamino)carbonyl]-2H-tetrazolium hydroxide (XTT) microculture method as described in Scudiero et al., Cancer Res., 48:4827 (1988), the contents of which are hereby incorporated by reference in their entirety. The CCK-8 assay is a cell counting kit-8 (CCK-8) tetrazolium assay using a 96-well microplate (Dojindo Molecular Technologies, Inc., Rockville, Md.) (M. Ishiyama et al., Biol. Pharm. Bull. 19: 1518, 1996). Absorbance was measured by Powerwave a XS microplate spectrophotometer. This method described is considered a general method in vitro cytotoxicity studies.
The data in Tables 2X, 3A-E, 4, 5, and 6 were obtained using the cell counting kit-8 (CCK-8) tetrazolium assay in a 96-well microplate. Five to seven concentrations of each compound in triplicate were used, and the IC50 values were determined by CompuSyn software automation (Chou T C. and Martin N. ComboSyn, Inc., 2006) based on the median-effect equation and plot (Chou T C. J. Theor. Biol. 59:235-276, 1976; Chou T C. Pharmacol. Rev. 58: 621-681, 2006). […] The r value defines the correlation coefficient of the median-effect plot which signifies the conformity to the mass-action law principle (Chou T C. J. Theor. Biol. 59:235-276, 1976; Chou T C. Pharmacol. Rev. 58:621-681, 2006). These parameters were determined by CompuSyn simulation (available at http://www.combosyn.com).
CCRF-CEM human T-cell acute lymphoblastic leukemia cells and the corresponding vinblastine-resistant cells (CCRF-CEM/VBL100) were cultured at an initial density of 5×10^4 cells per milliliter. The cultured cells were maintained in a 5% CO2-humidified atmosphere at 37° C. in RPMI medium 1640 (GIBCO/BRL) containing penicillin (100 units/mL), streptomycin (100 μg/mL, GIBCO/BRL), and 10% heat-inactivated fetal bovine serum. The cytotoxicity of each Compound of the invention was measured using the 2,3-bis(2-methoxy-4-nitro-5-sulfophenyl)-5-[(phenylamino)carbonyl]-2H-tetrazolium hydroxide (XTT) microculture method as described in Scudiero et al., Cancer Res., 48:4827 (1988), the contents of which are hereby incorporated by reference in their entirety.
Absorbance was measured by Powerwave XS microplate spectrophotometer.

HCT-116 colon carcinoma = assay: Cytotoxicity against solid tumor cells, CCK-8, 72 hrs (Table 4); format: cell-based; conditions: Homo sapiens
Method: (§1) Compounds are also evaluated against A-549 lung carcinoma and SK-OV-3 ovarian adenocarcinoma cell lines using the methodology as for Table 3. The potency order for the compounds may vary in different tumor cell lines. […] Absorbance was measured using a Powerwave XS microplate spectrophotometer.

MX-1 mammary carcinoma = assay: as above; format: cell-based; conditions: Homo sapiens
Method: as §1

A-549 lung carcinoma = assay: Cytotoxicity against solid tumor cells (Table 4); format: cell-based; conditions: Homo sapiens, A549, CCK-8, 72 hrs
Method: as §1

[4] = tested on: SK-OV-3 ovarian adenocarcinoma; assay: Cytotoxicity against solid tumor cells (Table 4); format: cell-based; conditions: Homo sapiens, CCK-8, 72 hrs
Method: as §1

human PBMC lymphocytes = assay: DNA synthesis ([3H]thymidine incorporation) in human PBMC lymphocytes (FIG. 8); format: cell-based
Excerpt: FIG. 8 show the effects of PHA and different concentrations of compounds of the invention, at different time points, on the proliferation of a culture of human lymphocytes as measured by DNA synthesis through incorporation of radiolabeled thymidine into the DNA.
The main principle and method of experiments for human PBMC lymphocytes and for mouse splenocytes stimulations were the same, since both measure immunological cell stimulation by PHA, PXT and compounds of the invention. Both the lymphocyte and the splenocyte assays measure the ^3H-dThd tracer as an indication of DNA synthesis. For PBMC lymphocytes (FIGS. 9A-9G), the experimental methods are those for splenocytes disclosed in Example 24 (FIGS. 11A-11F; FIGS. 12A-12E), except 0.282×10^6 PBMC lymphocyte cells in 198.5 μl was used, and the experimental incubation time was extended to 120 hr.
Briefly, to generate the data in Tables 8A and 8B, the compounds were tested in a [^3H] thymidine uptake experiment using PBMC human lymphocytes obtained from the New York Blood Center. PBMC human lymphocytes were exposed to compounds at 0.03, 0.1, 0.3, and 1.0 μM for 24 hours, and examined for increased [^3H] thymidine uptake. Human lymphocytes were also exposed to compounds for an extended time, e.g., 48 hrs and 72 hrs, instead of 24 hrs, in the [^3H] thymidine uptake assay, and examined to determine the extent of increased [^3H] thymidine uptake to determine if extended exposure will further increase the immune-enhancing effects of the compounds. Increased [^3H] thymidine uptake is interpreted as increased DNA synthesis, which indicates cell growth and division. In the case of immune system cells, this should result in an immune-enhancing effect. The compounds are compared by their IC50 values and/or their effect on [^3H] thymidine uptake at a given concentration and/or time point.

[5] = tested on: human lymphoblastic leukemic T-cell growth; assay: Cytotoxic activity relative to stability during storage at −20° C. in DMSO (Table 10); format: cell-based; conditions: Homo sapiens, CCRF-CEM, 72 h, Table 10, XTT, 72 hr
Excerpt: Without wishing to be bound by theory, the oxidized versions may be active metabolites. This theory provides an explanation of the delayed onset of therapeutic effects seen in the figures herein. The oxidized compounds may be active agents that are formed slowly upon metabolic oxidation. […] The active metabolites may explain the biphasic pharmacological properties of panaxytriol or Compound D that have been observed (FIGS. 9B, C, D; FIGS. 11D, E, F, and FIGS. 12D, E). […] Induction of the phase 2 enzymes may slow oxidation of the compounds (Ng et al., Tetrahedron Letters. 49: 7178-7179 (2008)).

[6] = tested on: human mammary carcinoma MX-1 xenograft; assay: Therapeutic effect and body weight in nude mice bearing MX-1 xenograft, single agents
Method: FIGS. 1A and 1B show the therapeutic, anti-cancer effects of various dosage regimens of panaxytriol and Compound (A), respectively, given by i.v. injection in nude mice bearing human mammary carcinoma MX-1 xenograft tumors, which is an in vivo model for breast cancer. […] The compounds were administered starting on day 8.
An in vivo assay uses male athymic nude mice bearing the nu/nu gene (6 weeks of age or older, weighing between 20 and 22 g, obtainable from NCl, Frederick, Md.) into which one or more human tumor xenografts are been implanted.
Nude mice having human mammary carcinoma xenograft MX-1 were treated with panaxytriol or Compound (A) at various dosages through the slow i.v. infusion protocol by Chou et al. (Chou, T. C., et al, Proc. Natl. Acad. Sci. U.S.A. 95: 15798 (1998), the contents of which are herein incorporated by reference in their entirety).

| Structure (SMILES) | mice died [1] | anti-cancer activity in the in vitro cytotoxicity assay [2] | IC50 ([2]; Homo sapiens, CCRF-CEM, 72 h, read-out: IC50 CCRF-CEM, Table 3D, CCK-8, 72-hr incubation) [nM] | IC50 ([3]; Homo sapiens, CCRF-CEM, 72 h, Table 3D, CCK-8, 72-hr incubation, read-out: IC50 CCRF-CEM/Vinblastine) [nM] | cross-resistance to TAXOL or vinblastine ([3]; TAXOL- or vinblastine-resistant (MDR) sublines) | fold resistance in brackets (IC50 CCRF-CEM/VBL vs CCRF-CEM) ([3]; Table 3) [x] | fold resistance (IC50 CCRF-CEM/VBL vs parent CCRF-CEM) ([3]; Table 3A) [fold] | fold of cross-resistance (CCRF-CEM/Vinblastine vs parent cell line) ([3]; Table 3D, given as x or -fold) [fold] | IC50 (HCT-116 colon carcinoma) [nM] | IC50 (MX-1 mammary carcinoma) [nM] | IC50 (A-549 lung carcinoma) [nM] | IC50 [4] [nM] | time of maximal stimulation of lymphocyte (human PBMC lymphocytes) [h] | IC50 ([5]; Aug. 22, 2003 (Stored), same solution kept at −20° C. in DMSO, read-out: IC50 in μM CCRF-CEM) [µM] | IC50 ([5]; Aug. 22, 2003 (Stored), same solution kept at −20° C. in DMSO, read-out: IC50 in μM CCRF-CEM/VBL) [µM] | IC50 ([5]; Jul. 25, 2003 (Fresh), read-out: IC50 in μM CCRF-CEM) [µM] | IC50 ([5]; Jul. 25, 2003 (Fresh), read-out: IC50 in μM CCRF-CEM/VBL) [µM] | tumor suppression compared to the control tumor size ([6]; Day 24, i.v. injection Q2D, escalating doses from day 8, FIGS. 1A, 1B) [%] | antitumor effects against MX-1 xenografts ([6]; mouse, in vivo) | level inhibiting tumor growth (as low as) ([6]; mouse, in vivo) [mg/kg] |
| --- | --- | --- | --- | --- | --- | --- | --- | --- | --- | --- | --- | --- | --- | --- | --- | --- | --- | --- | --- | --- |
| O=c1[nH]cc(F)c(=O)[nH]1 [Compound 5FU, 5-fluoro-uracil] | 5/8 |  |  |  |  |  |  |  |  |  |  |  |  |  |  |  |  |  |  |  |
| C=C[C@@H](O)C#CC#CC[C@H]1OC(C)(C)O[C@@H]1CCCCCCC [Compound (A)] |  | active against cancer | 803 | 1120 | do not appear to be cross-resistant to TAXOL or vinblastine | 1.22 | 1.4 | 1.4 | 1280 | 1920 | 3950 | 3000 | 120 | 2.12 | 2.37 | 1.21 ± 0.03 | 1.22 ± 0.15 | 47.7 | antitumor effects | 10 |
